In US11229643B2, “Combinations of FGFR4 inhibitors and bile acid sequestrants” (NOVARTIS AG, priority 2016, dated 2022):

Tests used:
[1] = 4-week dog study, ALT and AST; type: in vivo
From the text: The maximal increase was 6-fold and ≤2-fold for ALT and AST respectively (relative to pre-dose values), and occurred during week 2 of the study. Generally, there was no further increase in transaminase levels despite continued dosing over the 4-weeks indicating a level of adaptation to these pharmacologically mediated effects.

[2] = Dog cross-over study: plasma miR-122 levels (Taqman, standard curve method); type: in vivo, Beagle dogs
Description: Plasma miR-122 levels, a liver enriched microRNA used as biomarker of liver injury (Starkey Lewis P J et al., Clin Pharmacol Ther, 2012, 291-293), were determined. miR-122 is considered as a liver-specific marker.
Small RNA was extracted from 50 μl of plasma by using the miRNeasy/MinElute kit and following the instructions of the manufacturer (Qiagen). Elution of small RNA was realized in 14 μl of nucleic acid-free H2O.
3.2 μl of eluted small RNA was reverse transcribed into cDNA by using the Megaplex RT primer human pool A and B and the Taqman MicorRNA Reverse Transcription kit (Applied Biosystems/Life Technologies, reference 4366596) and following the instructions of the manufacturer.
2.5 μl of cDNA was preamplified by using the Megaplex Preamp primer human pool A and B (Applied Biosystems/Life Technologies, reference 4399201 and 4399233) and the Taqman PreAmp Master mix (Applied Biosystems/Life Technologies, reference 4391128) and following the instructions of the manufacturer.
microRNA miR-122 was amplified from preamplified cDNA by using a commercially available validated Taqman assay (reference 002245) diluted in the Taqman MasterMixII (Applied Biosystems/Life Technologies) and following the instructions of the manufacturer.
The relative quantification of plasmatic microRNA levels was performed using the standard curve method to generate expression values as number of molecules.
Statistical significance of mRNA measurements was assessed using the two-sample unequal variance, two-tailed distribution (hetero-scedastic Student's t-test, Excel). Coefficients of variation with a P value <0.05 were considered to be statistically significant.

[3] = tested on: advanced HCC; conditions: patients with advanced HCC; cited from earlier work
[4] = tested on: 456 kinases; conditions: cited from earlier work
[5] = Dog cross-over study of Compound A with or without cholestyramine: serum ALT activity; type: in vivo, Beagle dogs; conditions: Cpd A 5 mg/kg/day
Description: Male Beagle dogs were obtained from Marshall BioResources (North Rose, N.Y.). For the study, all animals were nave to treatment. All animals used in the study were healthy and suitable for use. The dose volume for Cpd A and its vehicle was 5 mL/kg. For CHO, the dosing aliquot was dispersed in 75 mL total animal drinking water.
For the study, a dosing paradigm was followed with initial loading dose of either vehicle or CHO on the last day of pretest (day −1), and dosing of either vehicle or CHO on days 1-7.
N-(5-cyano-4-((2-methoxyethyl)amino)pyridin-2-yl)-7-formyl-6-((4-methyl-2-oxopiperazin-1-yl)methyl)-3,4-dihydro-1,8-naphthyridine-1(2H)-carboxamide dosing was initiated on day 8, with the second dosing event of each day for either vehicle or CHO. Food was presented to the animals after the second daily dosing event. Animals were not dosed on day 15. Dosing was restarted on day 24 and the dose groups crossed over on day 38-44, with the last day of dosing on day 44.
Clinical observations, twice-weekly body weights, and daily food consumption determinations were performed.
Fecal samples were collected for bile acid (BA) analysis once during pretest and on days 7, 10, 14, 17, 24, 28, 35, 42, and 49.
Plasma was collected from all animals for bile acid profiling during the study, concurrent with clinical pathology and/or toxicokinetic sampling as follows: at approximately 3 hours postdose (post vehicle, CHO or Cpd A, as appropriate) on days 1, 3, 7, 8, 11, 14, 15, 18, 21, 23, 25, 28, 31, 35, 38, 42, 45, 49, and 52. On days 8, 14, 25, and 39 only, samples were collected at predose and approximately 0.5, 1, 3, 7, and 24 hours postdose (post Cpd A dosing). In addition, on day 44, bile acid biomarker samples were collected at 3, 7, and 24 hours postdose (concurrent with the last toxicokinetic blood collection).

[6] = relative to pre-dose values, during week 2 of 4-week dog study

COCCNc1cc(NC(=O)N2CCCc3cc(CN4CCN(C)CC4=O)c(C=O)nc32)ncc1C#N [Compound A, N-(5-cyano-4-((2-methoxyethyl)amino)pyridin-2-yl)-7-formyl-6-((4-methyl-2-oxopiperazin-1-yl)methyl)-3,4-dihydro-1,8-naphthyridine-1(2H)-carboxamide]
recovery of ALT/AST increases evident ([1]; day following cessation of Compound A administration): ≤ 8 days
maximal increase in ALT [1, 6]: 6 fold
maximal increase in AST [1, 6]: ≤ 2 fold
increase in miR-122 levels, maximum average ([2]; recovery period study day 15-23, at day 21, compared with study day 1-7): ≤ 5.4 fold
increase in miR-122 levels, peak ([2]; recovery study days 45-52, Group 1 animal 1001, day 49): ≤ 22.2 fold
increase in miR-122 levels, peak ([2]; recovery study days 45-52, Group 1 animal 1003, day 49): ≤ 47.9 fold
increase in miR-122 levels, peak ([2]; recovery study days 45-52, Group 1 animal 1005, day 49): ≤ 16.4 fold
increase in miR-122 levels, peak ([2]; recovery study days 45-52, Group 1 animal 1006, day 49): ≤ 40.1 fold
change in miR122 compared to respective controls, overall ([2]; some animals): minimal to moderate increases
increase in miR-122 levels, maximum average ([2]; study day 8-14, at day 14, compared with study day 1-7): ≤ 2.5 fold
increase in miR-122 levels, maximum ([2]; study days 25-38, animal 2003, at day 38): ≤ 151 fold
increase in miR-122 levels, maximum average ([2]; study days 25-38, animal 2006, at day 31): ≤ 63 fold
increase in miR-122 levels, average ([2]; study days 39-42, following the second cross-over): ≤ 7.8 fold
clinical activity [3]: promising clinical activity
targets found in kinome wide scan [4]: FGFR4 was the only target
increase in serum ALT activity ([5]; compared with pretest, first dosing period (from day 8)): 3.5 fold
change in serum ALT activity, in general ([5]; dogs): minimal to moderate increases
increase in serum ALT activity ([5]; following the first cross-over): 6 fold
increase in serum ALT activity ([5]; following the second cross-over): 3.5 fold
